# Patent publication US8932597B2 (priority 2008, dated 2015)
# Test system: HuM2e antibody 23K12
# Format: binding, human
row,Substance,Signal (peptides that bind to 23K21 and 8I10)
1,531 (MSLCTEVGMSLLTEC; epitope peptide) [compound 531],970
2,323 (SLCTEVGSLLTCV; epitope peptide) [compound 323],1781
3,574 (CLLTEVGSLLTEC; epitope peptide) [compound 574],866
4,455 (CLCTCVGSLLTEC; epitope peptide) [compound 455],1303
5,475 (MSLLTECGMSLCTEV; epitope peptide) [compound 475],1212
6,376 (CSLLTECGMSLLTEC; epitope peptide) [compound 376],1445
7,539 (SLLTEYETPIRNEWGCRCNDSSD; epitope peptide) [compound 539],950
8,374 (SLLTECGCSLLTEC; epitope peptide) [compound 374],1451
9,367 (SLCTEVGSLLTEC; epitope peptide) [compound 367],1495
10,494 (SLLTEQETPIRNEWGCRCNDSSD; epitope peptide) [compound 494],1102
11,319 (SLLTECGSLLTCV; epitope peptide) [compound 319],1800
12,462 (SLLTECGCLLTEV; epitope peptide) [compound 462],1259
13,526 (MSLLTECGMSCLCEC; epitope peptide) [compound 526],992
14,601 (SLLTECGSCLTEV; epitope peptide) [compound 601],830
15,469 (MSLLTECGMSLLTEC; epitope peptide) [compound 469],1236
16,523 (SLLTEFETPIRNEWGCRCNDSSD; epitope peptide) [compound 523],1009
17,298 (SLCTEVGSCLCEC; epitope peptide) [compound 298],1967
18,315 (MCLCTCVGCSLLTEC; epitope peptide) [compound 315],1823
19,332 (SALTEVETPIRNEWGCRCNDSSD; epitope peptide) [compound 332],1689
20,458 (CSLLTECGSCLTEV; epitope peptide) [compound 458],1278
21,335 (CSCLCEVGCSLLTEC; epitope peptide) [compound 335],1677
22,490 (SVLTEVETPIRNEWGCRCNDSSD; epitope peptide) [compound 490],1109
23,515 (SLLTEWETPIRNEWGCRCNDSSD; epitope peptide) [compound 515],1025
24,310 (MSCLCECGMSLLTEC; epitope peptide) [compound 310],1887
25,471 (SLLTEEETPIRNEWGCRCNDSSD; epitope peptide) [compound 471],1220
26,382 (CSLLTECGSLLTEV; epitope peptide) [compound 382],1393
27,502 (CSCLCEVGSLLTEC; epitope peptide) [compound 502],1064
28,308 (MSLCTEVGMCLCTCV; epitope peptide) [compound 308],1902
29,463 (CSLLTECGSLLTCV; epitope peptide) [compound 463],1258
